Data set [1] deals with T1, Orexin/Hypocretin receptor type 1 (Homo sapiens, UniProt O43613).
T1 sequence (O43613 whole entry): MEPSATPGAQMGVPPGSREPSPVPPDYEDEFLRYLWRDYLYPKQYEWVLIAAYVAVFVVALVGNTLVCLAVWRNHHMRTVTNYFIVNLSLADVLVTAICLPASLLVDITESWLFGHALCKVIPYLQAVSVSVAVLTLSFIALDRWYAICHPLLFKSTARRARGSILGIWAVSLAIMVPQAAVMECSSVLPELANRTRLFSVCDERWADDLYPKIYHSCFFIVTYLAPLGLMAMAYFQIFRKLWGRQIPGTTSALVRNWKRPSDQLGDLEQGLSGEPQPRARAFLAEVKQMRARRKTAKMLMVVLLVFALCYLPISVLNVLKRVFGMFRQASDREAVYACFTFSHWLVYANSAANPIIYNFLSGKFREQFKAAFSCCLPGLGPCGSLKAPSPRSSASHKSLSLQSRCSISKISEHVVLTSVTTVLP
Put plainly: Fluorescence-based cell-based high throughput dose response assay for antagonists of the orexin 1 receptor (OX1R; HCRTR1). [Related pubchem assays (depositor defined):AID434989, AID435008, AID463079, AID485270, AID492963, AID492964, AID492965, AID493232, AID504717, AID504718]. The data set is classed as functional.

Data set [2] addresses T2, Estrogen receptor (Homo sapiens, UniProt P03372).
T2 sequence (P03372 whole entry): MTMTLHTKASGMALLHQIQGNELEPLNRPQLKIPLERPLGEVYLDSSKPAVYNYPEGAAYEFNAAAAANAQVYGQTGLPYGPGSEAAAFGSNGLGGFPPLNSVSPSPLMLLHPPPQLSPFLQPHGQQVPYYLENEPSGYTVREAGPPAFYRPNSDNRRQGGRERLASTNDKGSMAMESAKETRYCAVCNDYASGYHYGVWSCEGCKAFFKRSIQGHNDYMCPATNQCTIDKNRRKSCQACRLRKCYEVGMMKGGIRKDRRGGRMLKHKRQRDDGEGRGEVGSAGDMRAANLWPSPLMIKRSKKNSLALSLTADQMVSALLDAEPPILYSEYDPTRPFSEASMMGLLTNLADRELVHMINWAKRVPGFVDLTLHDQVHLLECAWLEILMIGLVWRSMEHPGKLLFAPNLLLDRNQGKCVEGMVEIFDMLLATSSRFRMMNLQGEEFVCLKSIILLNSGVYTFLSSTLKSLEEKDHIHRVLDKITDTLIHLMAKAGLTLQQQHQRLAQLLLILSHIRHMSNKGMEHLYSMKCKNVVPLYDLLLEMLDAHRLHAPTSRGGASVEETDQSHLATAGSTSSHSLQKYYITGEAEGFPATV

Data set [3] relates to CHO-K1. As to the kind of experiment: Counterscreen for antagonists of the orexin 1 receptor (OX1R; HCRTR1): Homogeneous time resolved fluorescence (HTRF)-based cell-based dose response assay to identify antagonists of the parental CHO-K1 cell line. [Related pubchem assays (depositor defined):AID434989, AID435008, AID463079, AID485270, AID492963, AID492964, AID492965, AID493232, AID504699, AID504701]. Conditions: Cricetulus griseus. The data set is classed as functional. In general terms: Counterscreens check selectivity or assay interference.

For data set [4], the target named is T3, Orexin receptor type 2 (Homo sapiens, UniProt O43614).
T3 sequence (O43614 whole entry): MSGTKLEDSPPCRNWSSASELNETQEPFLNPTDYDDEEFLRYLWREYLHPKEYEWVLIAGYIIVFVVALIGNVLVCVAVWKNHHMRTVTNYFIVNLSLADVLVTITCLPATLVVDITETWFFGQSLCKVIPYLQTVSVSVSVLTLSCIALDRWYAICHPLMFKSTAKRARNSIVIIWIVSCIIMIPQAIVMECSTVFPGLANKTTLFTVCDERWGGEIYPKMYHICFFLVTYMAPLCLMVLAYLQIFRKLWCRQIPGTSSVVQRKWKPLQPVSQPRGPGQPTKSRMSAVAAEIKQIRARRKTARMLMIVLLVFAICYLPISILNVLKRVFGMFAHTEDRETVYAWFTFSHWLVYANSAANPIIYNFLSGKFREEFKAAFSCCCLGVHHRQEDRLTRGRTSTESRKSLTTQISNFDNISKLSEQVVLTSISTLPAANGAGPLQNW
Put plainly: Counterscreen assay for antagonists of the orexin 1 receptor (OX1R; HCRTR1): Fluorescence-based cell-based dose response assay for antagonists of the orexin 2 receptor (OX2R; HCRTR2), run by assay provider. The class given is functional.

Data set [5] addresses T3, Orexin receptor type 2. Put plainly: Counterscreen assay for antagonists of the orexin 1 receptor (OX1R; HCRTR1): Homogeneous Time Resolved Fluorescence (HTRF)-based cell-based dose response assay for antagonists of the orexin 2 receptor (OX2R; HCRTR2), run by assay provider. The data set is classed as functional.
The target in data set [6] is T1, Orexin/Hypocretin receptor type 1. As to the kind of experiment: Homogeneous Time Resolved Fluorescence (HTRF)-based cell-based high throughput dose response assay for antagonists of the orexin 1 receptor (OX1R; HCRTR1). [Related pubchem assays (depositor defined):AID434989, AID435008, AID463079, AID485270, AID492963, AID492964, AID492965, AID493232, AID504717, AID504718]. The class given is functional. On the technique in general: TR-FRET usually uses a lanthanide donor and a delayed reading to cut background.

The nature of data set [7]: Counterscreen for antagonists of the orexin 1 receptor (OX1R; HCRTR1): Fluorescence-based cell-based high throughput dose response assay to identify antagonists of the parental CHO cell line. [Related pubchem assays (depositor defined):AID434989, AID435008, AID463079, AID485270, AID492963, AID492964, AID492965, AID493232, AID504699, AID504701]. The class given is functional.

The target in data set [8] is Delta-type opioid receptor (Homo sapiens, UniProt P41143). Put plainly: Counterscreen for agonists of heterodimerization of the mu 1 (OPRM1) and delta 1 (OPRD1) opioid receptors: Luminescence-based cell-based high throughput dose response assay to identify agonists of OPRD1 homodimerization. [Related pubchem assays (depositor defined):AID504326, AID504355, AID504692, AID504904, AID504905]. The class given is functional.
Delta-type opioid receptor, sequence (P41143 whole entry): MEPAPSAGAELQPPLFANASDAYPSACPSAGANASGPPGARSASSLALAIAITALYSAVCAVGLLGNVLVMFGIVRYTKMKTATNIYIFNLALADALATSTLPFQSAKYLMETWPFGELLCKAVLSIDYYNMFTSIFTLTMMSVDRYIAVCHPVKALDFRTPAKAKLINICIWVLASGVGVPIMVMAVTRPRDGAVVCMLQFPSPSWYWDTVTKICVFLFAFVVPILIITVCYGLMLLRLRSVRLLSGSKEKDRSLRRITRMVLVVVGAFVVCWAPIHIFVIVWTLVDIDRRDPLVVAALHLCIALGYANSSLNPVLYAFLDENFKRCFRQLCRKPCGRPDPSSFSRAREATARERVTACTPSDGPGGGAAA

The target of data set [9] is 5-hydroxytryptamine receptor 5A (Homo sapiens, UniProt P47898). Put plainly: Counterscreen for agonists of OPRM1-OPRD1 heterodimerization: luminescence-based cell-based high throughput dose response assay to identify agonists of 5-hydroxytryptamine (serotonin) 5A receptor (HTR5A). [Related pubchem assays (depositor defined):AID504326, AID504355, AID504692, AID504904, AID504905]. The data set is classed as functional.
5-hydroxytryptamine receptor 5A, sequence (P47898 whole entry): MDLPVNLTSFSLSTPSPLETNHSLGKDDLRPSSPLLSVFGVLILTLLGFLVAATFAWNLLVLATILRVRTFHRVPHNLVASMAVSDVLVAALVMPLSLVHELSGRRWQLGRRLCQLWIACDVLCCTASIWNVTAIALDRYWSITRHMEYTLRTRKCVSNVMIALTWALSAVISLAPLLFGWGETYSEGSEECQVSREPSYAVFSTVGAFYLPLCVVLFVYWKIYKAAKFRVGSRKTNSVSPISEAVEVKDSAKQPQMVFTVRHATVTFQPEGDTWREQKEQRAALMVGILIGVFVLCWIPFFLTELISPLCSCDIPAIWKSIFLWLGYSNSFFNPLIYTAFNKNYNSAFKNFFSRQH

Data set [10] has as its target T4, Short transient receptor potential channel 4 (Mus musculus, UniProt Q9QUQ5).
T4 sequence (Q9QUQ5 whole entry): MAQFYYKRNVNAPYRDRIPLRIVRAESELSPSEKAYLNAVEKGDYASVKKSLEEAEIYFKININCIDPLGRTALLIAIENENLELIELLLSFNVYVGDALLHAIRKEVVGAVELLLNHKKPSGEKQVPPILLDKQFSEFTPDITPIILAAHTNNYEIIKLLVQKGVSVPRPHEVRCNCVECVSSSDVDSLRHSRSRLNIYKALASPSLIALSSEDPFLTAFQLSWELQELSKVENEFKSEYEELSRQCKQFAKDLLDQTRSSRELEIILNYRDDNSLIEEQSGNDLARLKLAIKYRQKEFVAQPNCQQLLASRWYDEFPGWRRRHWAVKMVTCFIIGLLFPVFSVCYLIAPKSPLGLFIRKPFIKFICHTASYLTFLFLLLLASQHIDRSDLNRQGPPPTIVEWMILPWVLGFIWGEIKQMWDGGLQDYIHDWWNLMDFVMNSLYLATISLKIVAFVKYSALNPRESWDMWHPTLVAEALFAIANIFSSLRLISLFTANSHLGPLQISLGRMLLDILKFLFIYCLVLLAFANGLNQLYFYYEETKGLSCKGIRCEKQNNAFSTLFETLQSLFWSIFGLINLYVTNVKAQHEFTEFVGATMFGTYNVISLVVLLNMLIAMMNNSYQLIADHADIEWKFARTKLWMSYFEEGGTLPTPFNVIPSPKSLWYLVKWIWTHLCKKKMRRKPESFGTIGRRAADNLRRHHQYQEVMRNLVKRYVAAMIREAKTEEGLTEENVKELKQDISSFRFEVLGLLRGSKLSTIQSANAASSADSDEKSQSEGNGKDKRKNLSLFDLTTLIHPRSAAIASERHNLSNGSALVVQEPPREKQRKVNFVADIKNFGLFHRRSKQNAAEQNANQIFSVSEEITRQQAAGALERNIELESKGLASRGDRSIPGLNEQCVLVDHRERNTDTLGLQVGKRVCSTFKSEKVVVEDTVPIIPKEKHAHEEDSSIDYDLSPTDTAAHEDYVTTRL
As to the kind of experiment: mouse TRPC4 channel activators, dose response, cell-based, HEK293 TRPC4/mu-opioid, Fluo-4 calcium (AID 434937). The data set is classed as functional.

The target of data set [11] is Mu-type opioid receptor (Homo sapiens, UniProt P35372). As to the kind of experiment: Counterscreen for agonists of heterodimerization of the mu 1 (OPRM1) and delta 1 (OPRD1) opioid receptors: Luminescence-based cell-based high throughput dose response assay to identify agonists of OPRM1 homodimerization. The class given is functional.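 Note: U2OS cells expressing OPRM1 and beta-arrestin as split beta-galactosidase partners.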
Mu-type opioid receptor, sequence (P35372 whole entry): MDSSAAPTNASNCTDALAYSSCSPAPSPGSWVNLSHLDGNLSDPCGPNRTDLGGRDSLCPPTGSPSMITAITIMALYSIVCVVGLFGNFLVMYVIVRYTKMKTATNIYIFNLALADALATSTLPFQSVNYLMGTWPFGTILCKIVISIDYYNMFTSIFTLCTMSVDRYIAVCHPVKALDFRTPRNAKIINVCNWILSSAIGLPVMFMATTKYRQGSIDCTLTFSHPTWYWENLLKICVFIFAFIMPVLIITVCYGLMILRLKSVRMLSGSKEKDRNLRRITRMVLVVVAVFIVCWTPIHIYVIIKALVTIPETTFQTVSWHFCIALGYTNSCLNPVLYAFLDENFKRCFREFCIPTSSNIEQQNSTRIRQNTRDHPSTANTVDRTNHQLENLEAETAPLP
The target in data set [12] is Cytochrome P450 3A4 (Homo sapiens, UniProt P08684).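 Note: CYP3A4 tested as one member of a cytochrome P450 panel screen.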
Cytochrome P450 3A4, sequence (P08684 whole entry): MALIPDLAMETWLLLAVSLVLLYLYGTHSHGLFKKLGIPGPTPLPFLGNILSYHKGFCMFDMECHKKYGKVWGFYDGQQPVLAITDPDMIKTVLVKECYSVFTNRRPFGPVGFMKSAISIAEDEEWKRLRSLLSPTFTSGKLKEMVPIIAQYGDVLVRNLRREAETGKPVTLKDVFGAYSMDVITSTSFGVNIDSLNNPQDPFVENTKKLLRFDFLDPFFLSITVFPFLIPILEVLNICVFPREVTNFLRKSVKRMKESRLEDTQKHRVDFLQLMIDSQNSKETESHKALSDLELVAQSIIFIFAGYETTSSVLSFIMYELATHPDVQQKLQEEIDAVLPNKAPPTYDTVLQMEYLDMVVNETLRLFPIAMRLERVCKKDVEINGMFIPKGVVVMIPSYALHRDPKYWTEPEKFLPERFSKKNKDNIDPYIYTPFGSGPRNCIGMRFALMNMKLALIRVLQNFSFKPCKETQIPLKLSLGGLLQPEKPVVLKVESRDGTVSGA
Data set [13] deals with Cytochrome P450 2C9 (Homo sapiens, UniProt P11712).
Cytochrome P450 2C9, sequence (P11712 whole entry): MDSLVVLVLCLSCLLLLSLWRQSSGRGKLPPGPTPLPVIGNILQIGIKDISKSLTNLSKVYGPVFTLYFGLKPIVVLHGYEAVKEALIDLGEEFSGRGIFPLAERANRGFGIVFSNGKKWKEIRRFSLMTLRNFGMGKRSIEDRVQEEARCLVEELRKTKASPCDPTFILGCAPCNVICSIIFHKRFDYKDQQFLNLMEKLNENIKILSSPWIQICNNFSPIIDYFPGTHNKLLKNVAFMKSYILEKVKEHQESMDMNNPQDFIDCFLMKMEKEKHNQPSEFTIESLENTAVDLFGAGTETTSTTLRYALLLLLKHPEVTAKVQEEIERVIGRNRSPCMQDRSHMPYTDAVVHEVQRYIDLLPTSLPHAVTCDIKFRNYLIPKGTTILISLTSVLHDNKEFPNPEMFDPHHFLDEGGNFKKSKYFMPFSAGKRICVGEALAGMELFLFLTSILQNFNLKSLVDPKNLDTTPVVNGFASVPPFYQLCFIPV
For data set [14], the system named is H4. Put plainly: Luminescence Cell-Based Dose Response HTS to Identify Activators of 5'UTR Stem-Loop Driven Prion Protein mRNA Translation in H4 Neuroglioblastoma Cells. [Related pubchem assays: 1829 (Project Summary), 1814 (Primary HTS)]. The class given is functional. Conditions: Homo sapiens.
In data set [15] the target is Cytochrome P450 2C19 (Homo sapiens, UniProt P33261). As to the kind of experiment: Cytochrome panel assay with activity outcomes. Panel member name: p450-cyp2c19 Compounds with AC50 equal or less than 10 uM are considered active. The class given is functional. Conditions: read-out: AC50.
Cytochrome P450 2C19, sequence (P33261 whole entry): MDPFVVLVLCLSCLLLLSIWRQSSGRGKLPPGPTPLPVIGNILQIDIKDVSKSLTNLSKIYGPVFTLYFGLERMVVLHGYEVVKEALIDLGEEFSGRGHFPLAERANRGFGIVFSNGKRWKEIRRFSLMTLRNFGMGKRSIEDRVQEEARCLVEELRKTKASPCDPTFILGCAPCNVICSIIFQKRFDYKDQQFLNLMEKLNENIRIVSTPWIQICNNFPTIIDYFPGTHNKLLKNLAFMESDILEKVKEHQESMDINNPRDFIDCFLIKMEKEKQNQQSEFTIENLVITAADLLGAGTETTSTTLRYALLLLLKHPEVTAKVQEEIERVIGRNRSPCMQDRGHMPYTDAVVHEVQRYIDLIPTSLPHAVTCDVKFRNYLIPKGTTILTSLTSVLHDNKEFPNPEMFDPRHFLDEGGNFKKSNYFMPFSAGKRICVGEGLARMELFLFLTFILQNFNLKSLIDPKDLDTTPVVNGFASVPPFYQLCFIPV
Data set [16] has as its target T5, Cytochrome P450 1A2 (Homo sapiens, UniProt P05177).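 Note: PubChem cytochrome P450 panel assay, CYP1A2 panel member.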
T5 sequence (P05177 whole entry): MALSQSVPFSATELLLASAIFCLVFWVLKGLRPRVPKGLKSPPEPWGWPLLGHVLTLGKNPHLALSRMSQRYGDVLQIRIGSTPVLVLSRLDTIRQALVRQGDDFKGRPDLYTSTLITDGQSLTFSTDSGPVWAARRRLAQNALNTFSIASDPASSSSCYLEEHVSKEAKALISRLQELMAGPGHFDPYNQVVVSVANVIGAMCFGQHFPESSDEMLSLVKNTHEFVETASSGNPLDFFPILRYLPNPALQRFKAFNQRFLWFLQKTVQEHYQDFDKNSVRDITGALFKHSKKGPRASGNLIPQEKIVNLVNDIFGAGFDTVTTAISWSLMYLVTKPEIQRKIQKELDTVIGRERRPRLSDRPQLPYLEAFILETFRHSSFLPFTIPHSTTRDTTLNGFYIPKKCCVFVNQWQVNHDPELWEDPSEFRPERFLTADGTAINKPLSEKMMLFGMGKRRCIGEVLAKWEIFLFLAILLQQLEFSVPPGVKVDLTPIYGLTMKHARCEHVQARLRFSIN

The nature of data set [17]: Luminescence Cell-Based Dose Confirmation HTS to Identify Activators of 5'UTR Stem-Loop Driven Alpha-Synuclein mRNA Translation in H4 Neuroglioblastoma Cells. [Related pubchem assays: 1829 (Project Summary), 1814 (Primary HTS)]. The data set is classed as functional.
Data set [18] can be described thus: Luminescence Cell-Based Dose Response HTS to Identify Activators of Luciferase Translation or Activity in H4 […] Cells. [Related pubchem assays: 1829 (Project Summary), 1814 (Primary HTS)]. The data set is classed as functional.
Data set [19] can be described thus: Luminescence Cell-Based Dose Retest to Confirm Inhibitors of Cancer Stem Cells. [Related pubchem assays (depositor defined):AID2717, AID2721]. The data set is classed as functional. The following applies: Homo sapiens.
Data set [20] concerns the target Heat shock protein HSP 90-alpha (Homo sapiens, UniProt P07900). The class given is functional, organism-based.

Molecules are shown by their SMILES. Active and inactive are the calls of the source.

As to `CCn1c(SCC(=O)Nc2ccc3c(c2)c2ccccc2n3CC)nnc1-c1cnccn1`, the IC50 (commonly the concentration needed to halve the response being measured) in [1] was 2.18 µM (active); in data set [2], > 50 µM (not active); in [3], > 66.3 µM (inactive); in data set [4], 38.9 µM (inactive); in [5], 23.1 µM (inactive); in data set [6], 0.0548 µM (active). In data set [7], the IC50 is > 49.8 µM (inactive).

Take `CCn1cc(CNCc2cn(-c3ccccc3C)nc2-c2ccc(OC)c(F)c2)cn1`: the EC50 (usually the concentration at which the effect is half-maximal) in data set [8] was 34.7 µM (inactive); in data set [9], > 92.5 µM (inactive); in [10], 1.33 µM (active); in data set [11], 18.9 µM (inactive).

In the case of `CCOC(=O)C1(CCCc2ccccc2)CCN(Cc2cnn(C)c2)CC1`, the EC50 is > 92.5 µM (inactive) in data set [8], > 92.5 µM (inactive) in data set [9], 0.596 µM (active) in data set [10] and 43 µM (inactive) in data set [11].

For `CN1C2CCC1/C(=C\c1ccccc1)C(=O)/C2=C\c1ccccc1`, the AC50 (as a rule, the midpoint of the concentration-response curve, whichever way the signal moves) in data set [12] was “inconclusive”; in [13], “inconclusive”; in data set [15], 10 µM (inconclusive); in data set [16], 39.8 µM (inconclusive); in data set [19], 4.4 µM (active). In addition, the EC50 in data set [14] is > 120 µM (not active); in data set [17], 6.92 µM (active); in data set [18], > 120 µM (not active).

Turning to `N#CC(=C1SC=CS1)c1nc(-c2ccccc2)cs1`, the IC50 in [1] is 1.02 µM (active); in [3], > 66.2 µM (inactive); in data set [4], 6.66 µM (active); in data set [5], 4.31 µM (active); in data set [6] it was 0.749 µM (active); in data set [7], > 49.7 µM (inactive). Besides, the EC50 is > 120 µM (not active) in data set [14], 0.204 µM (active) in data set [17] and 53.4 µM (active) in data set [18].

For `COc1ccccc1OCCNC(=O)c1ccc(Br)cc1`, the AC50 in [20] was 10.8 µM (active).
